The record followed here is patent US7781565B2 (priority 2006, dated 2010).

This test relates to NCI-60 cell lines. In kind it is cell-based, human.

“Also recorded” adds a separate entry of the source.

Turning to DFTLGSS, the “Cell Line the peptide is associated with (peptide recovered from phage library selection on this NCI-60 cell line)” value is “MDA-MB-231 Breast”.
For QKPGAVG, the “Cell Line the peptide is associated with (peptide recovered from phage library selection on this NCI-60 cell line)” value is “T-47D Breast”.
Turning to GAVNTPA, the “Cell Line (NCI-60 cell line the peptide and its motif are associated with)” value is given as “SK-MEL-2 Melanoma”.
On to AGGPTKY, for which the “Cell Line with which the peptide (and its tripeptide motif) is associated” value (shortened to “Cell Line with which the peptide”) was “SR Leukemia”.
On the same count and under the same terms, for LGLRAFV the value was “H322-Lung”.
As for GPSWATV, the “Cell Line (NCI-60 cell line the peptide is associated with)” value is “LOX-IMVI Melanoma”.
Same read-out and setting: in the case of VSSTARG it was “MALME-3M Melanoma”.
Regarding LRLSSIP, the “Cell Line with which the peptide” value is on record as “CCRF-CEM Leukemia”.
In the case of LGGLGLY, the “Cell Line (NCI-60 cell line the peptide and its motif are associated with)” value is recorded as “DU-145 Prostate”.
On to RRSGLGD, for which the “Cell Line (NCI-60 cell line the peptide is associated with)” value is “HCC-2998-Colon”.
As to SGSGCVF, the “Cell Line (NCI-60 cell line the peptide and its motif are associated with)” value is listed as “PC3 Prostate”.
Regarding LGGSGRR, the “Cell Line with which the peptide” value is “H23-Lung”.
As to SSGGRSS, the “Cell Line (NCI-60 cell line the peptide is associated with)” value is on record as “MALME-3M Melanoma”.
For GAVLFRV, the “Cell Line with which the peptide” value was “Hop-62-Lung”.
In the case of SLVSERA, the “Cell Line the peptide is associated with (peptide recovered from phage library selection on this NCI-60 cell line)” value was “HS 578 T Breast”.
As to FGLRNSR, the “Cell Line with which the peptide” value is given as “HL-60-Leukemia”.
GRSSAGP: the “Cell Line the peptide is associated with (peptide recovered from phage library selection on this NCI-60 cell line)” value is on record as “MDA-MB-231 Breast”.
For PGGSRHA, the “Cell Line (NCI-60 cell line the peptide and its motif are associated with)” value is on record as “SK-MEL-5 Melanoma”.
For GLVRGFP, the “Cell Line with which the peptide” value is “SR Leukemia”.
GATGVSS: the “Cell Line (NCI-60 cell line the peptide and its motif are associated with)” value is “OVCAR-8 Ovarian”.
For the substance SVHLVSG, the “Cell Line the peptide is associated with (peptide recovered from phage library selection on this NCI-60 cell line)” value is listed as “HS 578 T Breast”.
As for LRVDQLY, the “Cell Line (NCI-60 cell line the peptide and its motif are associated with)” value is “UACC62 Melanoma”.
Turning to PSLLRGF, the “Cell Line (NCI-60 cell line the peptide and its motif are associated with)” value is “UACC62 Melanoma”.
For MQLRGAV, the “Cell Line (NCI-60 cell line the peptide and its motif are associated with)” value was “OVCAR-4 Ovarian”.
As for WVGPSGG, the “Cell Line (NCI-60 cell line the peptide and its motif are associated with)” value is “SK-MEL-5 Melanoma”.
Still for that read-out and setting: for GSGQLIP the value was “M14 Melanoma”.
In the case of RSYPLRS, the “Cell Line (NCI-60 cell line the peptide is associated with)” value is recorded as “SW620-Colon”.
ASGRVAN: the “Cell Line (NCI-60 cell line the peptide is associated with)” value is “HCT-116 Colon”.
Turning to LFRWGGR, the “Cell Line (NCI-60 cell line the peptide and its motif are associated with)” value is given as “SK-MEL-28 Melanoma”.
As for PLAVGLV, the “Cell Line (NCI-60 cell line the peptide is associated with)” value is on record as “HCT-116 Colon”.
As for YGSVALR, the “Cell Line (NCI-60 cell line the peptide is associated with)” value is recorded as “H522-Lung”.
Turning to NLRVGAE, the “Cell Line (NCI-60 cell line the peptide and its motif are associated with)” value is on record as “OVCAR-4 Ovarian”.
In the case of ERYYLRS, the “Cell Line the peptide is associated with (peptide recovered from phage library selection on this NCI-60 cell line)” value is given as “MCF-7 Breast”.
CGAVAEW: the “Cell Line (NCI-60 cell line the peptide and its motif are associated with)” value is on record as “PC3 Prostate”.
Consider AGSMMEF, for which the “Cell Line (NCI-60 cell line the peptide and its motif are associated with)” value is listed as “OVCAR-3 Ovarian”.
On to RIGRVWA, for which the “Cell Line with which the peptide” value is “Molt-4-Leukemia”.
On to LGAGMIA, for which the “Cell Line (NCI-60 cell line the peptide and its motif are associated with)” value is “OVCAR-8 Ovarian”.
Consider LVSTSNR, for which the “Cell Line (NCI-60 cell line the peptide and its motif are associated with)” value is “SK-MEL-2 Melanoma”.
As for GLRRDNG, the “Cell Line (NCI-60 cell line the peptide and its motif are associated with)” value is “OVCAR-3 Ovarian”.
For PEGGRRP, the “Cell Line the peptide is associated with (peptide recovered from phage library selection on this NCI-60 cell line)” value is given as “SN12C Renal”.
As to AVSLAWQ, the “Cell Line the peptide is associated with (peptide recovered from phage library selection on this NCI-60 cell line)” value was “T-47D Breast”.
Turning to VWAGVLL, the “Cell Line with which the peptide” value is “Hop-62-Lung”.
Regarding AGRIASK, the “Cell Line (NCI-60 cell line the peptide is associated with)” value is listed as “HT-29 Colon”.
The same measure, in the same setting: for ELWASLG the value was “HT-29 Colon”.
Consider NLADGSV, for which the “Cell Line with which the peptide” value is listed as “H322-Lung”.
In the case of TGGLHWY, the “Cell Line the peptide is associated with (peptide recovered from phage library selection on this NCI-60 cell line)” value is given as “TK-10 Renal”.
The same measure, in the same setting: in the case of PYRRGSC it was “MDA-MB-231 Breast”.
For the substance RAAGGSR, the “Cell Line with which the peptide” value was “RPMI-8226-Leukemia”.
Take RGGSDEA: the “Cell Line the peptide is associated with (peptide recovered from phage library selection on this NCI-60 cell line)” value was “BT-549 Breast”.
Take LGGLGLS: the “Cell Line (NCI-60 cell line the peptide and its motif are associated with)” value is on record as “OVCAR-5 Ovarian”.
Regarding SMRGVLS, the “Cell Line the peptide is associated with (peptide recovered from phage library selection on this NCI-60 cell line)” value is recorded as “BT-549 Breast”.
QWYSLRS: the “Cell Line (NCI-60 cell line the peptide is associated with)” value was “LOX-IMVI Melanoma”.
For the substance AAVWQMK, the “Cell Line (NCI-60 cell line the peptide is associated with)” value is given as “SNB-19 CNS; also recorded: SF-539 CNS”.
On the same count and under the same terms, for GTLRVGS the value was “HT-29 Colon”.
On to GRLRPFS, for which the “Cell Line the peptide is associated with (peptide recovered from phage library selection on this NCI-60 cell line)” value was “TK-10 Renal”.
In the case of REGGSDT, the “Cell Line the peptide is associated with (peptide recovered from phage library selection on this NCI-60 cell line)” value is listed as “NCI/ADR-RES Breast”.
With GSGILDL, the “Cell Line with which the peptide” value is “EKVX-Lung”.
On to RRSGAGG, for which the “Cell Line the peptide is associated with (peptide recovered from phage library selection on this NCI-60 cell line)” value is recorded as “UO31 Renal”.
With LAGGWGS, the “Cell Line (NCI-60 cell line the peptide is associated with)” value is listed as “SF-295 CNS”.
Turning to FGVSGGS, the “Cell Line the peptide is associated with (peptide recovered from phage library selection on this NCI-60 cell line)” value was “MDA-MB-231 Breast”.
For DELGSVQ, the “Cell Line the peptide is associated with (peptide recovered from phage library selection on this NCI-60 cell line)” value is recorded as “TK-10 Renal”.
For RRGSGGL, the “Cell Line with which the peptide” value is given as “H23-Lung”.
Consider GAGRTVM, for which the “Cell Line with which the peptide” value was “SR Leukemia”.
Take RRLSYHS: the “Cell Line (NCI-60 cell line the peptide and its motif are associated with)” value is given as “M14 Melanoma; also recorded: OVCAR-3 Ovarian”.
Consider FFGRVGI, for which the “Cell Line with which the peptide” value was “Molt-4-Leukemia”.
With ARYSLRS, the “Cell Line (NCI-60 cell line the peptide and its motif are associated with)” value is on record as 786-0 Renal.
The same measure, in the same setting: in the case of RLSSAPS it was “M14 Melanoma”; in that of EGRLMLA, “MALME-3M Melanoma”.
For the substance LGASLLV, the “Cell Line the peptide is associated with (peptide recovered from phage library selection on this NCI-60 cell line)” value was “RXF393 Renal”.
For GRLRLTD, the “Cell Line with which the peptide” value is recorded as “HL-60-Leukemia”.
Regarding DQQEAGS, the “Cell Line (NCI-60 cell line the peptide and its motif are associated with)” value was 786-0 Renal.
On the same count and under the same terms, in the case of FGGSMAP it was “SK-MEL-2 Melanoma”.
Regarding GGSVEGQ, the “Cell Line the peptide is associated with (peptide recovered from phage library selection on this NCI-60 cell line)” value is listed as “ACHN Renal”.
Take APLRSGR: the “Cell Line with which the peptide” value was “EKVX-Lung”.
In the case of LLRSHGV, the “Cell Line (NCI-60 cell line the peptide is associated with)” value was “SF-295 CNS”.
On to RGVSLKG, for which the “Cell Line with which the peptide” value was “H226-Lung”.
With GLRGSVW, the “Cell Line (NCI-60 cell line the peptide is associated with)” value is given as “COLO-205-Colon”.
With RANGVLV, the “Cell Line with which the peptide” value was “H23-Lung”.
Consider GNGGARG, for which the “Cell Line (NCI-60 cell line the peptide and its motif are associated with)” value was “M14 Melanoma”.
SGSRVSL: the “Cell Line with which the peptide” value is “HL-60-Leukemia”.
For the substance LSTPGRV, the “Cell Line the peptide is associated with (peptide recovered from phage library selection on this NCI-60 cell line)” value is “UO31 Renal”.
With RNPGRLA, the “Cell Line (NCI-60 cell line the peptide is associated with)” value is “HT-29 Colon”.
The same measure, in the same setting: for SHCGPSN the value was “SF-295 CNS”.
As to GGSQCDT, the “Cell Line with which the peptide” value was “K-562-Leukemia”.
On to GLVGRRA, for which the “Cell Line (NCI-60 cell line the peptide is associated with)” value is “COLO-205-Colon”.
Turning to PGKRGVQ, the “Cell Line with which the peptide” value is on record as “H460-Lung”.
DYVGAGT: the “Cell Line (NCI-60 cell line the peptide and its motif are associated with)” value was “DU-145 Prostate”.
Turning to WWAAVPG, the “Cell Line the peptide is associated with (peptide recovered from phage library selection on this NCI-60 cell line)” value is recorded as “SN12C Renal”.
The same measure, in the same setting: for SLYRGRL the value was “T-47D Breast”.
On the same count and under the same terms, in the case of RASCVWA it was “MCF-7 Breast”.
As for AGGWRGR, the “Cell Line (NCI-60 cell line the peptide is associated with)” value was “SF-268 CNS”.
Turning to AVWRLSH, the “Cell Line with which the peptide” value is reported as “H322-Lung”.
Regarding LAGRASE, the “Cell Line (NCI-60 cell line the peptide and its motif are associated with)” value is “OVCAR-4 Ovarian”.
Still for that read-out and setting: in the case of GLRVYEP it was “PC3 Prostate”.
In the case of LRSMAVM, the “Cell Line the peptide is associated with (peptide recovered from phage library selection on this NCI-60 cell line)” value is reported as “ACHN Renal”.
In the case of GSSELSR, the “Cell Line (NCI-60 cell line the peptide and its motif are associated with)” value is reported as “DU-145 Prostate”.
As to GLVKLRS, the “Cell Line the peptide is associated with (peptide recovered from phage library selection on this NCI-60 cell line)” value was “MCF-7 Breast”.
Regarding SRLSYCN, the “Cell Line (NCI-60 cell line the peptide and its motif are associated with)” value was “OVCAR-4 Ovarian”.
Still for that read-out and setting: for RVSSDPI the value was “SK-OV-3-3 Ovarian”.
For the substance VMGAGVQ, the “Cell Line the peptide is associated with (peptide recovered from phage library selection on this NCI-60 cell line)” value is “ACHN Renal”.
GRLYLGI: the “Cell Line (NCI-60 cell line the peptide is associated with)” value was “SF-295 CNS”.
For RRAGGSV, the “Cell Line (NCI-60 cell line the peptide and its motif are associated with)” value was “OVCAR-5 Ovarian”.
On to GAVTGYP, for which the “Cell Line (NCI-60 cell line the peptide is associated with)” value is recorded as “SF-268 CNS”.
Turning to YMYHGRV, the “Cell Line (NCI-60 cell line the peptide and its motif are associated with)” value is recorded as “OVCAR-4 Ovarian”.
With PRLGRLL, the “Cell Line the peptide is associated with (peptide recovered from phage library selection on this NCI-60 cell line)” value is given as “TK-10 Renal”.
Take GFGRLLW: the “Cell Line the peptide is associated with (peptide recovered from phage library selection on this NCI-60 cell line)” value is given as “A498 Renal”.
Regarding LAGSRVS, the “Cell Line (NCI-60 cell line the peptide and its motif are associated with)” value is recorded as “OVCAR-4 Ovarian”.
In the case of GVLTRGN, the “Cell Line (NCI-60 cell line the peptide and its motif are associated with)” value was “OVCAR-8 Ovarian”.
For the substance SWGSGGS, the “Cell Line with which the peptide” value is on record as “Hop-92-Lung”.
As to VYGWGGS, the “Cell Line (NCI-60 cell line the peptide and its motif are associated with)” value was “DU-145 Prostate”.
For GVAGGAT, the “Cell Line (NCI-60 cell line the peptide is associated with)” value is “SW620-Colon”.
In the case of RSSSGSG, the “Cell Line the peptide is associated with (peptide recovered from phage library selection on this NCI-60 cell line)” value is “TK-10 Renal”.
